# Experiments:
# total Huntingtin protein = assay: Western blot of total HTT in Huntington's disease patient iPSC ND36999; format: cell-based, human; conditions: iPSC with 180 CAG repeats, 24 hr
# Protocol: Cell samples were lysed in 30 mM Tris-HCl, pH 8.0, 5 mM NaCl, 0.1% Triton X-100 for 10 min on ice. The supernatants from spinning (14 k rpm for 10 min) were collected. The protein concentrations were determined by BCA assay (Pierce, ThermoFisher). Equal amounts of protein were loaded onto 4-12% gel. After electrophoresis, the gels were transferred to nitrocellulose membranes by wet transfer at 35V for 16 hr. The protein level of mutant HTT, total HTT and tubulin were determined by immunoblotting with anti-poly Glutamine (MAB1574 from Millipore), anti-Huntingtin protein (MAB2166 from Millipore) and anti-alpha tubulin (AJ1034a from ABGENT). Blots were imaged on a Li-Cor Odyssey infrared imager. The bands intensities were determined by Li-Cor Odyssey software.
# To test whether the nucleoside 6-Azauridine (HD101) and (−)-6-Azauridine 2′,3′,5′-triacetate (HD106) can affect the expression of proteins with long polyQ domains, one iPSC (induced pluripotent stem cell) line ND36999, which was derived from a Huntington's disease patient who carries one allele of mutant htt gene with 180 CAG repeats, was purchased from the Coriell Institute. The iPSCs were plated into a 24-well plate coated with Matrigel. […] Cells were lysed and the protein concentrations were determined by BCA assay. […] The image (FIG. 10) was taken and the quantification was made by Li-Cor Odyssey imaging system.
# [1] = target: T1, Supt4h-YC / Supt5h NGN-YN interaction (Homo sapiens, UniProt O00267+P63272); assay: Bimolecular fluorescence complementation (BiFC) assay in 2-PN4 stable cells; format: cell-based
# T1 construct: NGN-YN is a genetic engineered protein in which Supt5h NGN domain is fused to YFP YN; expressed in transfected cells
# Protocol: Human Supt4h and Supt5hNGN were fused in-frame with the YC and YN respectively. The YN and YC represent the N- and C-terminal domain of yellow fluorescent protein Venus. To prevent a change in protein folding caused by the conjugation of two polypeptides (Kerppola, “Design and implementation of bimolecular fluorescence complementation (BiFC) assays for the visualization of protein interactions in living cells,” Nature protocols (2006) 1:1278-1286), a protein linker containing additional 10 amino acid residues was included in the fusion protein. Also, extra amino acids GSHM were incorporated into the Supt5hNGN to increase its protein stability (Wenzel et al., “Crystal structure of the human transcription elongation factor DSIF hSpt4 subunit in complex with the hSpt5 dimerization interface,” The Biochemical journal (2010) 425:373-380). Supt4h, NGN, YC, and YN were amplified by PCR to generate DNA fragments containing the nucleotide sequence of protein linker. Supt4h and NGN PCR products then were mixed with the PCR product of YN or YC for secondary overlapping PCR. Finally, the resulting Supt4h-YC and NGN-YN DNA fragment was cloned into plasmid vector pcDNA3-HA and pFLAG-CMV-2 respectively.
# Tet-on HeLa cells were transfected with linearized pTRE-HA-Supt4h-VC-Flag-NGN-VN plasmid construct using LipofectAMINE 2000 (Invitrogen). After transfection, cells were cultured initially in growth medium containing puromycin (1 μg/ml) and then selected for clones that show YFP fluorescence in the presence of tetracycline (4 μg/ml). The stable line having the strongest fluorescence signal was isolated and designated as 2-PN4. Likewise, 21-VS stable line was created using pTRE-HA-Venus.
# Stable lines 2-PN4 and 21-VS were pre-cultured in 6-well plates, followed by an incubation of Doxycycline (4 μg/ml) together with various concentrations of chemical compounds for 24 hr. Cells were washed with PBS (Sigma) and monitored by microscope (20× magnification). Photos were taken using Nikon D500 camera with a setting of ISO 1600, shutter 1/200 for the light images, and shutter ½ for the fluorescence images. For quantification of fluorescence intensity, 5 photos with similar cell number were taken and the fluorescence signal was measured by Metamorph software individually. The average of overall fluorescence signal was determined and compared to the one observed in DMSO-treated control sample.
# For the purpose of high-throughput drug screening, based on the BiFC method as mentioned above, we have created a stable cell line that co-expresses NGN-YN and Supt4h-YC under the control of a tet-on inducible promoter. […] If the complementation that is driven by NGN and Supt4h interaction is inhibited by a given test compound, the de novo YFP fluorescence signal is affected. […]
# [2] = system: Supt4h-YC and NGN-YN protein expression; assay: Western blot of Supt4h-YC and NGN-YN protein levels in 2-PN4 cells; format: cell-based, human
# Protocol: As described (Liu et al., “Spt4 is selectively required for transcription of extended trinucleotide repeats,” Cell (2012) 148:690-701), equal amounts of protein were resolved by electrophoresis on 12% sodium dodecyl sulfate (SDS)-polyacrylamide gels, and transferred onto nitrocellulose membranes (nitrocellulose, Waterman 0.45 μM, NBA085C). After blocking with 5% low-fat milk in Tris-buffer saline containing 0.1% Tween-20, membranes were probed with primary antibodies, incubated with a horseradish peroxidase (HRP)-conjugated secondary antibody, and detected by ECL reagent (enhanced chemiluminescence, PerkinElmer).
structure (smiles),measurement,setting,value
"O=c1cnn([C@@H]2O[C@H](CO)[C@@H](O)[C@H]2O)c(=O)[nH]1 [HD101, 6-Azauridine]",total Huntingtin protein expression level,total Huntingtin protein,little effect
same,reduction of BiFC signal compared to mock controls,"[1]; 0.02 μM, 24 hr",approximately 70%
same,BiFC fluorescence signal of 2-PN4 cells,"[1]; various concentrations, 24 hr with Doxycycline 4 μg/ml",inhibits the fluorescence signal of BiFC
same,protein expression of Supt4h-YC and NGN-YN,[2],does not decrease the BiFC signal via a change in the protein level
